In test [1] the target is T1, DENV3 NS5 MTase (dengue virus type 3, UniProt V9TQY8).
T1 sequence (V9TQY8 2491-2753): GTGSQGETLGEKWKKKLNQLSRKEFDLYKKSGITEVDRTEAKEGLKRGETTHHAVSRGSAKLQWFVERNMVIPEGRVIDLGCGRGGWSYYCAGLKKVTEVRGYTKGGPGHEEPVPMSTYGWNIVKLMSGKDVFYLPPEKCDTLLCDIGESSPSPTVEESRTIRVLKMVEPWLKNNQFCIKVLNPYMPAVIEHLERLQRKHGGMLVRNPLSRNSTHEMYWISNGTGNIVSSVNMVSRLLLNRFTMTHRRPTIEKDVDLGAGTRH
Briefly: fluorescence polarization displacement of F-GTP. Type of test: binding.

The target of test [2] is T1, DENV3 NS5 MTase. The test can be described thus: fluorescence polarization displacement of F-GTP. Type of test: binding. This is another data set of the same source.

What is called IC50 is the point on the concentration scale where inhibition reaches its midpoint. For orientation: Ki means the equilibrium dissociation constant of an inhibitor or competing ligand from its target. A high value points to weaker binding.

On to `O=c1c(O)c(-c2ccc(O)cc2)oc2c(O)c(O)cc(O)c12` [HC, herbacetin], for which, at DENV3 NS5 MTase [1], the IC50 worked out at 0.77 ± 0.01 µM. The compound also had a Ki at DENV3 NS5 MTase [2] of around 0.43 µM.

The values are drawn from doi:10.1101/2024.10.14.618121v2 (biorxiv, 2025).
